The source of these data is patent US6777544B2, “Polyamide nucleic acid derivatives and agents and processes for preparing them” (Aventis Pharma Deutschland GmbH, priority 2000, dated 2004).

The subject of one series is complementary RNA. The series is described as follows: Melting temperature (Tm) of PNA with complementary RNA. The class given is binding. The note with it: 140 mM KCl, 10 mM sodium dihydrogen phosphate, 0.1 mM EDTA (pH 7.4); oligomer 0.5 to 1 OD260 per ml. As to the method:
(§1) The melting temperatures were determined using an HP 8452A diode-array spectrophotometer, an HP 89090A Peltier element, and HP Temperature Control Software Rev. B5.1 (from Hewlett Packard). Measurements were taken in 0.5° C./min steps in 140 mM KCl, 10 mM sodium dihydrogen phosphate, 0.1 mM EDTA (pH 7.4) as the buffer. The oligomer concentration was from 0.5 to 1 OD260 per ml.

For a further series, the system named is complementary DNA. The experiment in a line: Melting temperature (Tm) of PNA with complementary DNA. The class given is binding. The note with it: 140 mM KCl, 10 mM sodium dihydrogen phosphate, 0.1 mM EDTA (pH 7.4); oligomer 0.5 to 1 OD260 per ml. As to the method:
as §1

Another series relates to COS cells. The experiment in a line: Cell uptake after fluorescence labeling (fluorescence microscopy). The class given is cell-based. The note with it: PNA solution 10 μM, 37° C., examined after 2, 4 and 16 hours, C-terminally fluorescein-labeled, compared with labeled PNA-6. As to the method:
COS cells were allowed to grow to confluence in Dulbecco's MEM (DMEM), which had been supplemented with 10% FCS, in 5 cm Petri dishes. The cells were washed twice with serum-free DM EM. An area of approx. 1 cm^2 was scratched out in the middle of the Petri dish using a sterile needle. The PNA solution (10 μM) under investigation was applied in this area. The dish was incubated at 37° C. under a CO2 atmosphere. After 2, 4, and 16 hours, the cells were examined by fluorescence microscopy. For this, the cells were washed four times with serum-free DM EM, covered with a cover slip, and evaluated under the fluorescence microscope or by phase contrast.
In order to investigate the cell uptake, PNA-6 and PNA-13 were labeled as indicated directly below with fluorescein at the C terminus and then examined microscopically.

A further series relates to REH cells. The experiment in a line: Inhibiting cell proliferation (cell density). The class given is cell-based, human. Particulars: 10 μM. As to the method:
The sequence of PNA-13 is directed against the translation start of the Ha-ras mRNA. REH cells (human pre-B leukemia cells, DSM ACC 22) or A549 tumor cells were cultured, at 37° C. and under 5% CO2, in OptiMEM (Gibco BRL) containing 10% fetal calf serum (FCS, GIBCO-BRL). The cell density for the assay was approx. 1×10^6/ml. The PNA-13 (10 μM) was incubated with the cells in 24-well plates. After incubating at 37° C. and under 5% CO2 for 96 hours, the cell density was determined. Mean values for the cell density were determined from 3 individual wells at a given PNA concentration.

Turning to “Ac-HN-tat tcc gtc at-hex [Reference, reference compound]”, the “Tm (RNA)” value in the series with complementary RNA came to 56.6 °C. For the same substance, in the series on complementary DNA, the “Tm (DNA)” value amounted to 41.9 °C.
Take “Biotin-p-{t(oeg) at tcc gtc at}-hex [PNA-12]”: the “Tm (RNA)” value with complementary RNA turned out to be 57.9 °C. In addition, the “Tm (DNA)” value in the series on complementary DNA was 43.6 °C.
Turning to “Fluorescein-p-{t(oeg) at tcc gtc at}-hex (TATTCCGTCAT; chemistry not fully specified) [PNA-14]”, the “Tm (RNA)” value in the series on complementary RNA was 56.7 °C. Also, the “Tm (DNA)” value in the series on complementary DNA came out at 42.5 °C.
For the substance “Hexadecyl-O-p-{t(oeg) at tcc gtc at}-hex (TATTCCGTCAT; chemistry not fully specified) [PNA-13]”, the “Tm (RNA)” value in the series with complementary RNA was 58.9 °C. The cell uptake result with COS cells is “taken up more efficiently into the cells”. Also, the “inhibition of cell proliferation” value in the series on REH cells (96 hours, 37° C., 5% CO2) is listed as “inhibits proliferation of the REH cells”. For the same substance, in the series on REH cells (after >4 days of incubation), the “inhibition of proliferation compared with a corresponding phosphorothioate oligonucleotide” value is “greater than that brought about by a corresponding phosphorothioate oligonucleotide”. In the series on complementary DNA, the “Tm (DNA)” value was found to be 46.7 °C.
“Phosphate-{t(oeg)-at tcc gtc at}-hex (TATTCCGTCAT; chemistry not fully specified) [PNA-6]”: in the series with complementary RNA, the “Tm (RNA)” value amounted to 57.5 °C. Moreover, the “Tm (DNA)” value with complementary DNA came to 44.0 °C.
